Data taken from US20040170645A1, “Seaweed extract composition for retardation of cardiovascular disorders and preservation of healthy cardiovascular function” (priority 2002, published 2004).

Tested on: thrombus in the right jugular vein
Assay: Thrombosis test (jugular vein, formalin/methanol initiated)
Type: in vivo, rat
Settings: 7.5 mg/kg oral, 4 h
Experimental: One hundred and two male Wistar rats, weighing 312±64 g (±SD), were handled and housed according to the Principles of Animal Care set out by the Canadian Federation of Biological Societies. The animals were fasted overnight prior to treatment and were anaesthetized with barbital and methoxyflurane for experimental procedures.
The rhamnan-arginine complex was weighed fresh daily. Six to 8 rats were treated per day. […] Thus when the stomach tube was placed in the stomach the drugs were first introduced into the stomach followed by saline to give a total volume of approximately 0.4 ml. In the heparin alone group, heparin was administered in a volume of 0.1-0.2 ml followed by 0.2 ml saline. Control group was saline alone.
The thrombosis test was performed by a modification of the procedure by Blake et al. For animals exposed to treatment for 4 h, a thrombus was initiated in the right jugular vein by application of 10% formalin in 65% methanol to the exposed adventitial surface. Immediately following, drugs were introduced into the stomach by stomach tube. […] The clot was scored as + (hard clot) if the vessel is blocked and remained blocked despite examination with a cotton pledget. […] The thrombus was scored as − (negative) if blood was seen to flow freely in the vessel.
Thrombosis data is expressed as a percentage with 95% confidence intervals. […] Other data is expressed as mean ±SE. […]

Heparin
incidence of hard clots: reduced the percentage of incidence of hard clots | total incidence of thrombosis: little or no effect
